Laboratory results published in US11802120B2, “Fused cyclic urea derivatives as CRHR2 antagonist” (RaQualia Pharma Inc., priority 2018, dated 2023).

What follows are molecules tested against T1, human CRHR2-alpha (Homo sapiens, UniProt Q13324) (assay: cAMP functional assay for human CRHR2 (LANCE Ultra cAMP, TR-FRET)). Details: CHO-K1 cells expressing human CRHR2-alpha, agonist human urocortin2 at EC80, cAMP; read-out: IC50 against CRHR2.
T1 sequence (Q13324 1-411): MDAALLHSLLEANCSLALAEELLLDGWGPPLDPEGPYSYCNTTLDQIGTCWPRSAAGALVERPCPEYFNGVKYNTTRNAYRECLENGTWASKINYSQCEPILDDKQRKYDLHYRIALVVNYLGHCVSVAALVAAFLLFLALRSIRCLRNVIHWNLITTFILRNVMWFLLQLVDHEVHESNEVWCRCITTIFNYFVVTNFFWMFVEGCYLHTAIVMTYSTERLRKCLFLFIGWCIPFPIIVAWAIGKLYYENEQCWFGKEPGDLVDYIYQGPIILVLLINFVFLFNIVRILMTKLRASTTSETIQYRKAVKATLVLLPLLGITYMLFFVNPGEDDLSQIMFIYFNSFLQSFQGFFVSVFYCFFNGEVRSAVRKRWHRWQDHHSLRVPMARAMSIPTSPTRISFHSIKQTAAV
Assay type: cell-based
Method in brief: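 Inhibition of agonist-driven cAMP was assessed in recombinant CHO-K1 cells at 25° C, using 30 min compound pretreatment and 30 min stimulation with EC80 human urocortin2 (CRHR2) or CRF (CRHR1). IC50 came from dose-response fitting.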

IC50 [µM]	Compound
< 0.3	COc1ccc(-n2c(=O)n(C[C@H]3CC[C@H](NC(=O)c4c5c(nn4C)CCCC5)CC3)c3ccccc32)cn1 [Example 221, N-((1r,4r)-4-((3-(6-methoxy-pyridin-3-yl)-2-oxo-2,3-dihydro-1H-benzo[d]imidazol-1-yl)methyl)cyclohexyl)-2-methyl-4,5,6,7-tetrahydro-2H-indazole-3-carboxamide]
< 0.3	Cc1ncc(Cl)cc1C(=O)N[C@H]1CC[C@H](Cn2c(=O)n(-c3ccc4[nH]nc(Cl)c4c3)c3ccccc32)CC1 [Example 222, 5-chloro-N-((1r,4r)-4-((3-(3-chloro-1H-indazol-5-yl)-2-oxo-2,3-dihydro-1H-benzo[d]imidazol-1-yl)methyl)cyclohexyl)-2-methylnicotinamide]
< 0.3	COc1ccc(-n2c(=O)n(C[C@H]3CC[C@H](NC(=O)c4cc(Cl)ccc4C)CC3)c3ccccc32)cn1 [Example 223, 5-chloro-N-((1r,4r)-4-((3-(6-methoxypyridin-3-yl)-2-oxo-2,3-dihydro-1H-benzo[d]imidazol-1-yl)methyl)cyclo-hexyl)-2-methylbenzamide]
< 0.3	Cc1ncc(Cl)cc1C(=O)N[C@H]1CC[C@H](Cn2c(=O)n(-c3cnc4c(c3)OCC(=O)N4)c3ccccc32)CC1 [Example 224, 5-chloro-2-methyl-N-((1r,4r)-4-((2-oxo-3-(3-oxo-3,4-dihydro-2H-pyrido[3,2-b][1,4]oxazin-7-yl)-2,3-dihydro-1H-benzo[d]imidazol-1-yl)methyl)cyclohexyl)nicotinamide]
< 0.3	CNC(=O)c1ccc(-n2c(=O)n(C[C@H]3CC[C@H](NC(=O)c4cc(Cl)cnc4C)CC3)c3cc(C)ccc32)cn1 [Example 225, 5-(3-(((1r,4r)-4-(5-chloro-2-methylnicotinamido)cyclo-hexyl)methyl)-5-methyl-2-oxo-2,3-dihydro-1H-benzo [d]imidazol-1-yl)-N-methylpicolinamide]
< 0.3	CNC(=O)c1ccc(-n2c(=O)n(C[C@H]3CC[C@H](NC(=O)c4cc(Cl)cnc4C)CC3)c3cc(F)ccc32)cn1 [Example 226, 5-(3-(((1r,4r)-4-(5-chloro-2-methylnicotinamido)cyclo-hexyl)methyl)-5-fluoro-2-oxo-2,3-dihydro-1H-benzo[d]imidazol-1-yl)-N-methylpicolinamide]
< 0.3	COc1ccc(-n2c(=O)n(C[C@H]3CC[C@H](NC(=O)c4cc(Br)cnc4C)CC3)c3ccccc32)cn1 [Example 227, 5-bromo-N-((1r,4r)-4-((3-(6-methoxypyridin-3-yl)-2-oxo-2,3-dihydro-1H-benzo[d]imidazol-1-yl)methyl)cyclo-hexyl)-2-methylnicotinamide]
< 0.3	COc1ccc(-n2c(=O)n(C[C@H]3CC[C@H](NC(=O)c4cc(Cl)cnc4C(F)(F)F)CC3)c3ccccc32)cn1 [Example 228, 5-chloro-N-((1r,4r)-4-((3-(6-methoxypyridin-3-yl)-2-oxo-2,3-dihydro-1H-benzo[d]imidazol-1-yl)methyl)cyclo-hexyl)-2-(trifluoromethyl) nicotinamide]
< 0.3	COCOCCn1nc(C)c2cc(-n3c(=O)n(C[C@H]4CC[C@H](NC(=O)c5cc(Cl)cnc5C)CC4)c4ccccc43)ccc21 [Example 229, 5-chloro-N-((1r,4r)-4-((3-(1-(2-(methoxymethoxy)ethyl)-3-methyl-1H-indazol-5-yl)-2-oxo-2,3-dihydro-1H-benzo[d]imidazol-1-yl)methyl)cyclo-hexyl)-2-methylnicotinamide]
< 0.3	Cc1ncc(Cl)cc1C(=O)N[C@H]1CC[C@H](Cn2c(=O)n(-c3ccc4c(c3)c(C)nn4CCO)c3ccccc32)CC1 [Example 230, 5-chloro-N-((1r,4r)-4-((3-(1-(2-hydroxyethyl)-3-methyl-1H-indazol-5-yl)-2-oxo-2,3-dihydro-1H-benzo[d]imidazol-1-yl)methyl)cyclohexyl)-2-methylnicotinamide]
< 0.3	COc1ccc(-n2c(=O)n(C[C@H]3CC[C@H](NC(=O)c4cc(Cl)cnc4C)CC3)c3ccccc32)c(C#N)c1 [Example 231, 5-chloro-N-((1r,4r)-4-((3-(2-cyano-4-methoxyphenyl)-2-oxo-2,3-dihydro-1H-benzo[d]imidazol-1-yl)methyl)cyclo-hexyl)-2-methylnicotinamide]
< 0.3	Cc1ncc(Cl)cc1C(=O)N[C@H]1CC[C@H](Cn2c(=O)n(-c3ccc4nnn(C)c4c3)c3ccccc32)CC1 [Example 232, 5-chloro-2-methyl-N-((1r,4r)-4-((3-(1-methyl-1H-benzo[d] [1,2,3]triazol-6-yl)-2-oxo-2,3-dihydro-1H-benzo[d]imidazol-1-yl)methyl)cyclohexyl) nicotinamide]
< 0.3	Cc1ncc(Cl)cc1C(=O)N[C@H]1CC[C@H](Cn2c(=O)n(-c3ccccc3[N+](=O)[O-])c3ccccc32)CC1 [Example 233, 5-chloro-2-methyl-N-((1r,4r)-4-((3-(2-nitrophenyl)-2-oxo-2,3-dihydro-1H-benzo[d]imidazol-1-yl)methyl)cyclo-hexyl)nicotinamide]
< 0.3	Cc1ncc(Cl)cc1C(=O)N[C@H]1CC[C@H](Cn2c(=O)n(-c3ccccc3Cl)c3ncccc32)CC1 [Example 234, 5-chloro-N-((1r,4r)-4-((3-(2-chlorophenyl)-2-oxo-2,3-dihydro-1H-imidazo[4,5-b]pyridin-1-yl)methyl)cyclo-hexyl)-2-methylnicotinamide]
< 0.3	CNC(=O)c1ccc(-n2c(=O)n(C[C@H]3CC[C@H](NC(=O)c4cc(Cl)cnc4C)CC3)c3cccc(F)c32)cn1 [Example 235, 5-(3-(((1r,4r)-4-(5-chloro-2-methylnicotinamido)cyclo-hexyl)methyl)-7-fluoro-2-oxo-2,3-dihydro-1H-benzo[d]imidazol-1-yl)-N-methylpicolinamide]
< 0.3	COc1ccc(-n2c(=O)n(C[C@H]3CC[C@H](NC(=O)c4cc(Cl)cnc4Cl)CC3)c3ccccc32)cn1 [Example 237, 2,5-dichloro-N-((1r,4r)-4-((3-(6-methoxypyridin-3-yl)-2-oxo-2,3-dihydro-1H-benzo[d]imidazol-1-yl)methyl)cyclo-hexyl)nicotinamide]
< 0.3	Cc1ncc(Cl)cc1C(=O)N[C@H]1CC[C@H](Cn2c(=O)n(-c3cccc4c3CCC4)c3ccncc32)CC1 [Example 238, 5-chloro-N-((1r,4r)-4-((1-(2,3-dihydro-1H-inden-4-yl)-2-oxo-1H-imidazo[4,5-c]pyridin-3(2H)-yl)methyl)cyclohexyl)-2-methylnicotinamide]
< 0.3	Cc1ncc(Cl)cc1C(=O)N[C@H]1CC[C@H](Cn2c(=O)n(-c3cccnc3C#N)c3ccccc32)CC1 [Example 239, 5-chloro-N-((1r,4r)-4-((3-(2-cyanopyridin-3-yl)-2-oxo-2,3-dihydro-1H-benzo[d]imidazol-1-yl)methyl)cyclohexyl)-2-methylnicotinamide]
< 0.3	CNC(=O)c1ccc(-n2c(=O)n(C[C@H]3CC[C@H](NC(=O)c4cc(Cl)cnc4C(F)(F)F)CC3)c3ccccc32)cn1 [Example 240, 5-(3-(((1r,4r)-4-(5-chloro-2-(trifluoromethyl)nicotina-mido)cyclohexyl)methyl)-2-oxo-2,3-dihydro-1H-benzo [d]imidazol-1-yl)-N-methylpicolinamide]
< 0.3	Cc1ncc(Cl)cc1C(=O)N[C@H]1CC[C@H](Cn2c(=O)n(Cc3ccccc3C#N)c3ccccc32)CC1 [Example 241, 5-chloro-N-((1r,4r)-4-((3-(2-cyanobenzyl)-2-oxo-2,3-dihydro-1H-benzo[d]imidazol-1-yl)methyl)cyclohexyl)-2-methylnicotinamide]
< 0.3	Cc1ncc(Cl)cc1C(=O)N[C@H]1CC[C@H](Cn2c(=O)n(Cc3cccc(C#N)c3)c3ccccc32)CC1 [Example 242, 5-chloro-N-((1r,4r)-4-((3-(3-cyanobenzyl)-2-oxo-2,3-dihydro-1H-benzo[d]imidazol-1-yl)methyl)cyclohexyl)-2-methylnicotinamide]
< 0.3	Cc1ncc(Cl)cc1C(=O)N[C@H]1CC[C@H](Cn2c(=O)n(-c3ccc4c(C(N)=O)noc4c3)c3ccccc32)CC1 [Example 243, 6-(3-(((1r,4r)-4-(5-chloro-2-methylnicotinamido)cyclohexyl)methyl)-2-oxo-2,3-dihydro-1H-benzo[d]imidazol-1-yl)benzo[d]isoxazole-3-carboxamide]
< 0.3	CNC(=O)c1noc2cc(-n3c(=O)n(C[C@H]4CC[C@H](NC(=O)c5cc(Cl)cnc5C)CC4)c4ccccc43)ccc12 [Example 244, 6-(3-(((1r,4r)-4-(5-chloro-2-methylnicotinamido)cyclohexyl)methyl)-2-oxo-2,3-dihydro-1H-benzo[d]imidazol-1-yl)-N-methylbenzo[d]isoxazole-3-carboxamide]
< 0.3	Cc1ncc(Cl)cc1C(=O)N[C@H]1CC[C@H](Cn2c(=O)n(-c3ccc4c(C(=O)N(C)C)noc4c3)c3ccccc32)CC1 [Example 245, 6-(3-(((1r,4r)-4-(5-chloro-2-methylnicotinamido)cyclohexyl)methyl)-2-oxo-2,3-dihydro-1H-benzol[d]imidazol-1-yl)-N,N-dimethylbenzo[d]isoxazole-3-carboxamide]
< 0.3	COc1cccc(-n2c(=O)n(C[C@H]3CC[C@H](NC(=O)c4cc(Cl)cnc4C)CC3)c3ccccc32)c1C#N [Example 246, 5-chloro-N-((1r,4r)-4-((3-(2-cyano-3-methoxyphenyl)-2-oxo-2,3-dihydro-1H-benzo [d]imidazol-1-yl)methyl)cyclohexyl)-2-methyl-nicotinamide]
